# What was measured:
# [1] = In vitro human liver microsomal stability assay; format: in vitro ADME; conditions: for Percent Remaining (%) 0 min / Percent Remaining (%) 15 min / Percent Remaining (%) 30 min / Percent Remaining (%) 60 min / Percent Remaining (%) 120 min: human liver microsomes 2 mg/mL, 1 μM compound; for Percent Remaining (%) 0 min / Percent Remaining (%) 15 min / Percent Remaining (%) 30 min / Percent Remaining (%) 60 min / Percent Remaining (%) 120 min / Percent Remaining (%) 120 min w/o NADPH: mean; for Percent Remaining (%) 120 min w/o NADPH: 120 min without NADPH; for CLint scaled at 1 μM / half-life at 1 μM: pH 7.4
# Procedure: Human liver microsomal stability assays are conducted at 2 mg per mL liver microsome protein with an NADPH-generating system consisting of NADP (1 mM, pH 7.4), […] (5 mM, pH 7.4), and glucose-6-phosphate dehydrogenase (1 unit/mL). Test compounds were prepared as solutions in DMSO and added to the assay mixture (1 μM, final concentration in incubation) and were incubated at 37±1° C. […] Samples were centrifuged (920×g for 10 min at 10° C.) in 96-well plates. Supernatant fractions were analyzed by LC-MS/MS to determine the percent remaining and estimate the degradation half-life of the test compounds.
# CYP1A2 = target: T1, CYP1A2 (Homo sapiens, UniProt P05177); test: In vitro metabolism using human cytochrome P450 enzymes (CYP1A2); format: in vitro ADME; conditions: for Clint / half-life at 0.2 mM: Cyp 1A2; for Percent Remaining (%) 0 min: Cyp 1A2, 0 min; for Percent Remaining (%) 0 min / Percent Remaining (%) 15 min / Percent Remaining (%) 30 min / Percent Remaining (%) 45 min / Percent Remaining (%) 60 min: mean; for Percent Remaining (%) 15 min: Cyp 1A2, 15 min; for Percent Remaining (%) 30 min: Cyp 1A2, 30 min; for Percent Remaining (%) 45 min: Cyp 1A2, 45 min; for Percent Remaining (%) 60 min: Cyp 1A2, 60 min; for half-life at 0.2 mM: human, recombinant CYP1A2 (baculovirus expression system), pH 7.4
# T1 construct: purchased BD Biosciences, San Jose, Calif
# T1 sequence (P05177 1-516): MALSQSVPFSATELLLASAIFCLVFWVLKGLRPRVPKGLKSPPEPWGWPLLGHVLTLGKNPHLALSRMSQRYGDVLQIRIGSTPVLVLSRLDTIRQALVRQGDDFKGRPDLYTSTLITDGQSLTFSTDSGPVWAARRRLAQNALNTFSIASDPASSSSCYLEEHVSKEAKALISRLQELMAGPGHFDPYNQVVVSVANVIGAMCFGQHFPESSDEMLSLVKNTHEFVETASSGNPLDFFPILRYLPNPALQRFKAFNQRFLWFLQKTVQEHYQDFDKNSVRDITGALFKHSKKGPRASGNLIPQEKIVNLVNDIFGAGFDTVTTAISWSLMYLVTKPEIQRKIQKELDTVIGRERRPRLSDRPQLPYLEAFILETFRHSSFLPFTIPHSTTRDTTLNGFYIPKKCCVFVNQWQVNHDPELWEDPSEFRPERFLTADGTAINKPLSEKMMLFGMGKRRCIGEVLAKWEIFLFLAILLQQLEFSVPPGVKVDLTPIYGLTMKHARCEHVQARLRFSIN
# CYP3A4 = CYP3A4 (Homo sapiens, UniProt P08684); test: In vitro metabolism using human cytochrome P450 enzymes (CYP3A4); conditions: for Clint: Cyp 3A4; for Percent Remaining (%) 0 min: Cyp 3A4, 0 min; for Percent Remaining (%) 0 min / Percent Remaining (%) 15 min / Percent Remaining (%) 30 min / Percent Remaining (%) 45 min / Percent Remaining (%) 60 min: mean; for Percent Remaining (%) 15 min: Cyp 3A4, 15 min; for Percent Remaining (%) 30 min: Cyp 3A4, 30 min; for Percent Remaining (%) 45 min: Cyp 3A4, 45 min; for Percent Remaining (%) 60 min: Cyp 3A4, 60 min; for half-life at 0.2 mM: human, pH 7.4
# [2] = cited from earlier work
# R6/2 mouse = conditions: transgenic r6/2 mouse model; cited from earlier work
# drosophila model of HD = conditions: cited from earlier work
# [3] = human liver microsomes, degradation half-life
# [4] = recombinant CYP3A4 (baculovirus expression system)
# [5] = human, single-dose phase, average
# [6] = human, single-dose phase, range
# Sequence of CYP3A4 (P08684 whole entry): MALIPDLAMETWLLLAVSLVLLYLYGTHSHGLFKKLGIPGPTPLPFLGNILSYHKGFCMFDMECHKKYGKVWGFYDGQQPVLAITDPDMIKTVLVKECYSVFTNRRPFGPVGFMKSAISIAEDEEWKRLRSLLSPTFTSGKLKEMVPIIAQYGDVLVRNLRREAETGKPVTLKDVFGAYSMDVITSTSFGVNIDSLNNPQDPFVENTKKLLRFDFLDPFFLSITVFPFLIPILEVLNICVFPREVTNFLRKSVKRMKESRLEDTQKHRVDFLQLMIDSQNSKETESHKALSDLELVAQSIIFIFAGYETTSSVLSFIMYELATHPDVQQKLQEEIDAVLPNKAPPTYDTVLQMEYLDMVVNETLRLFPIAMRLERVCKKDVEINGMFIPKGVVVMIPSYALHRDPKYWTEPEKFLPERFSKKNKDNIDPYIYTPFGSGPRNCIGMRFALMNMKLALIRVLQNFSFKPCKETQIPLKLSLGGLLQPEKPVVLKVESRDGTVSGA
SMILES,Percent Remaining (%) 0 min [1] [%],Percent Remaining (%) 15 min [1] [%],Percent Remaining (%) 30 min [1] [%],Percent Remaining (%) 60 min [1] [%],Percent Remaining (%) 120 min [1] [%],Percent Remaining (%) 120 min w/o NADPH ([1]; human liver microsomes) [%],CLint scaled at 1 μM ([1]; human liver microsomes) [mL/min/kg],"half-life at 1 μM [1, 3] [min]",Clint (CYP1A2) [mL/min/pmol],Percent Remaining (%) 0 min (CYP1A2) [%],Percent Remaining (%) 15 min (CYP1A2) [%],Percent Remaining (%) 30 min (CYP1A2) [%],Percent Remaining (%) 45 min (CYP1A2) [%],Percent Remaining (%) 60 min (CYP1A2) [%],Clint (CYP3A4) [mL/min/pmol],Percent Remaining (%) 0 min (CYP3A4) [%],Percent Remaining (%) 15 min (CYP3A4),Percent Remaining (%) 30 min (CYP3A4),Percent Remaining (%) 45 min (CYP3A4),Percent Remaining (%) 60 min (CYP3A4),also measured
"[2H]C1([2H])c2c([nH]c3ccc(Cl)cc23)C(C(N)=O)C([2H])([2H])C1([2H])[2H] (stereo not shown) [Example 3, 6-chloro-2,3,4,9-tetrahydro-1H-carbazole-2,2,3,3,4,4-d6-1-carboxamide]",100,92.39,86.96,70.69,52.83,96.74,13.5,128,0.00019,100.00,45.84,26.01,17.34,12.82,0.00010,100.00,69.80%,61.49%,63.89%,60.39%,half-life at 0.2 mM (CYP1A2): 17.9 min; half-life at 0.2 mM (CYP3A4; [4]): 70.7 min
CCOc1ccc(NC(C)=O)cc1 [Phenacetin],,,,,,,,,0.00018,100.00,53.02,31.01,20.20,15.08,,,,,,,
"NC(=O)C1CCCc2c1[nH]c1ccc(Cl)cc21 (stereo not shown) [Example 1, 6-chloro-2,3,4,9-tetrahydro-1H-carbazole-1-carboxamide]",100,93.37,90.46,73.66,52.94,102.02,13.6,128,0.0002,100.00,46.28,24.21,16.02,11.55,0.00013,100.00,63.43%,55.02%,54.21%,51.13%,"half-life at 0.2 mM (CYP1A2): 16.9 min; Intersubject variability (% CV) in AUC(0,∞), average [2, 5]: 56%; Intersubject variability (% CV) in Cmax, average [2, 5]: 33%; Intersubject variability (% CV) in AUC(0,∞) [2, 6]: 35-71%; Intersubject variability (% CV) in Cmax [2, 6]: 23-46%; Safety and tolerability in human subjects ([2]; recent clinical trial (Westerberg et al.)): safe and well-tolerated; Effects on life span and psychomotor and histological endpoints (R6/2 mouse): statistically significant effects on life span; Neuroprotection (drosophila model of HD): neuroprotective; half-life at 0.2 mM (CYP3A4; [4]): 52.5 min"
O=C(c1ccc(F)cc1)C1CCN(CCn2c(=O)[nH]c3ccccc3c2=O)CC1 [Ketanserin],100,78.08,64.73,44.75,26.52,97.70,,,,,,,,,,,,,,,"Clint ([1]; human liver microsomes): 39.88 mL/min/kg; T1/2 [1, 3]: 43.58 min"
Cc1ncc2n1-c1ccc(Cl)cc1C(c1ccccc1F)=NC2 [Midazolam],,,,,,,,,,,,,,,>0.0014,100.00,BQL,BQL,BQL,BQL,half-life at 0.2 mM (CYP3A4; recombinant enzyme): < 5 min
"[2H]C1(C(N)=O)CCCc2c1[nH]c1ccc(Cl)cc21 (stereo not shown) [Example 2, 6-chloro-1-deutero-2,3,4,9-tetrahydro-1H-carbazole-1-carboxamide]",100,100.12,85.44,71.84,59.95,100.36,11.4,152,0.0002,100.00,48.53,27.30,17.05,12.99,0.00013,100.00,69.07%,59.14%,54.63%,53.05%,half-life at 0.2 mM (CYP1A2): 17.7 min; half-life at 0.2 mM (CYP3A4; [4]): 52.8 min
